According to ChEMBL document CHEMBL1152705, “Synthesis and promotion angiogenesis effect of chrysin derivatives coupled to NO donors” (Bioorg Med Chem Lett, 2009):
The source made the active and inactive calls. No cut-off for these calls is given here.

Legend:
Chorioallantoic membrane = experiment: Angiogenic activity in chick embryo chorioallantoic membrane at 10 uL/egg after 2 days; type: functional, tissue-based; conditions: Gallus gallus
Homo sapiens = species on record: Homo sapiens; experiment: Angiogenic activity in HUVEC12 assessed as induction of cell proliferation at 10 uM after 24 hrs by MTT assay; type: functional

Row | SMILES | Activity (Chorioallantoic membrane) | Activity (Homo sapiens)
1 | O=c1cc(-c2ccccc2)oc2cc(OCCO[N+](=O)[O-])cc(O)c12 | Active | Active
2 | O=c1cc(-c2ccccc2)oc2cc(O)cc(O)c12 | – | Active
3 | O=c1cc(-c2ccccc2)oc2cc(OCCCCCCO[N+](=O)[O-])cc(O)c12 | Active | Active
4 | O=c1cc(-c2ccccc2)oc2cc(OCCCCO[N+](=O)[O-])cc(O)c12 | Active | Active
